Laboratory results published in ChEMBL document CHEMBL1201862, “PubChem BioAssay data set” (2004).
Calls of active or inactive are those of the source.

Key:
Cytochrome P450 2C19 = Cytochrome P450 2C19 (Homo sapiens, UniProt P33261); experiment: qHTS Assay for Inhibitors and Substrates of Cytochrome P450 2C19. [Related pubchem assays: 410 ]; type: ADME; conditions: read-out: Potency
Cytochrome P450 2D6 = Cytochrome P450 2D6 (Homo sapiens, UniProt P10635); experiment: qHTS Assay for Inhibitors and Substrates of Cytochrome P450 2D6. [Related pubchem assays: 410 ]; type: ADME; conditions: read-out: Potency
Cytochrome P450 2D6, sequence (P10635 whole entry): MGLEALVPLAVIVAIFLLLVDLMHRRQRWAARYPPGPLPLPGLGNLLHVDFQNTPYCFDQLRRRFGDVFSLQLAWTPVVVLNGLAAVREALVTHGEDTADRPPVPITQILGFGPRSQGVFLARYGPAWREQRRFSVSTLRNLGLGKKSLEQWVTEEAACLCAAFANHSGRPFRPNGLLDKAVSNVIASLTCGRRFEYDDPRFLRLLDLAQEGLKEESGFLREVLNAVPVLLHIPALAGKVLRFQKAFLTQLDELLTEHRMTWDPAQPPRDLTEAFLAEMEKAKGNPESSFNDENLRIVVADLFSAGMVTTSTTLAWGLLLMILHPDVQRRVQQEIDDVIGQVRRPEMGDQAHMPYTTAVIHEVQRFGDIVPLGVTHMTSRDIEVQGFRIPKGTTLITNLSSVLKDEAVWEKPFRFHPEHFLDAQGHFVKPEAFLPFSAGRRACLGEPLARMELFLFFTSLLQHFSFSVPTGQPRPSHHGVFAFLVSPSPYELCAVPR

NADPH oxidase 1 = NADPH oxidase 1 (Homo sapiens, UniProt Q9Y5S8); experiment: Late-stage luminescence-based cell-based dose response assay to identify inhibitors of NADPH oxidase 1 (NOX1): Synthesized analogs.; type: functional
NADPH oxidase 1, sequence (Q9Y5S8 whole entry): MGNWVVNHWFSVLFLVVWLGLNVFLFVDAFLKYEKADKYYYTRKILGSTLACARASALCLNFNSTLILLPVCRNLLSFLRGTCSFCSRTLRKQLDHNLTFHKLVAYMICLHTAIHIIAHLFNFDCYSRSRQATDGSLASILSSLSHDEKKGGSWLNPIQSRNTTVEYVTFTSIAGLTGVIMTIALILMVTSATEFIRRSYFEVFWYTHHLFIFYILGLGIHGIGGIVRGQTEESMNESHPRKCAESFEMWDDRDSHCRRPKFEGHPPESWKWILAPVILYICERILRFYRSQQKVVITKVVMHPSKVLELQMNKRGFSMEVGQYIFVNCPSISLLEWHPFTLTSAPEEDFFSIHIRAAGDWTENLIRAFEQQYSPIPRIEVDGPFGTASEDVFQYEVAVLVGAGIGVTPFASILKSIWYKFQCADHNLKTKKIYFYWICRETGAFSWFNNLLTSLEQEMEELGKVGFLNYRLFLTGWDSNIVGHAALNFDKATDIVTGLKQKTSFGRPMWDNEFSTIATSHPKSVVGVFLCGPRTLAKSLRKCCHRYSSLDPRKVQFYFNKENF

[1] = target: Sphingosine 1-phosphate receptor 1 (Homo sapiens, UniProt P21453); type: functional;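 further: Tango beta-arrestin reporter U2OS cells stimulated with S1P near its EC80; inhibitor potency meaning antagonism of receptor activation by the natural agonist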
Sphingosine 1-phosphate receptor 1, sequence (P21453 whole entry): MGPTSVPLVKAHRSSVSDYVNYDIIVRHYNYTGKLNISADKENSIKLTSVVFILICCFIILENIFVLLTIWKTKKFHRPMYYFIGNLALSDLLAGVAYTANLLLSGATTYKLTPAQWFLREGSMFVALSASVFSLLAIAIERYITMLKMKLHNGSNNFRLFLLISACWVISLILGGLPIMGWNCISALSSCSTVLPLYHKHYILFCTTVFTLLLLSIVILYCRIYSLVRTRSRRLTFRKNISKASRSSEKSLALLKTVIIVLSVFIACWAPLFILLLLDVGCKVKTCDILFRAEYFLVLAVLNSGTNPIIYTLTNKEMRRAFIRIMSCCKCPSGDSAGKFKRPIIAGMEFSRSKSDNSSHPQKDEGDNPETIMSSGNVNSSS

[2] = NIH-3T3 fibroblast cytotoxicity, dose response, cytotoxicity control, cell-based, fluorescence, Alamar Blue, secondary assay (AID 2327); type: functional;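 further: NIH-3T3 mouse fibroblasts cultured with fluconazole at 8 µg/mL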
[3] = target: T1, Heat shock factor protein 1 (Mus musculus, UniProt P38532); experiment: HSF1 potentiators in luciferase reporter cells, confirmation, cell-based, NIH3T3, luminescence, dose retest (AID 435004); type: functional;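 further: stress induced by proteasome inhibitor MG132 added 30 min after compound; luciferase reporter driven by HSF1 response element in NIH3T3 cells; actives raise luminescence as potentiators of the MG132 stress response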
T1 sequence (P38532 whole entry): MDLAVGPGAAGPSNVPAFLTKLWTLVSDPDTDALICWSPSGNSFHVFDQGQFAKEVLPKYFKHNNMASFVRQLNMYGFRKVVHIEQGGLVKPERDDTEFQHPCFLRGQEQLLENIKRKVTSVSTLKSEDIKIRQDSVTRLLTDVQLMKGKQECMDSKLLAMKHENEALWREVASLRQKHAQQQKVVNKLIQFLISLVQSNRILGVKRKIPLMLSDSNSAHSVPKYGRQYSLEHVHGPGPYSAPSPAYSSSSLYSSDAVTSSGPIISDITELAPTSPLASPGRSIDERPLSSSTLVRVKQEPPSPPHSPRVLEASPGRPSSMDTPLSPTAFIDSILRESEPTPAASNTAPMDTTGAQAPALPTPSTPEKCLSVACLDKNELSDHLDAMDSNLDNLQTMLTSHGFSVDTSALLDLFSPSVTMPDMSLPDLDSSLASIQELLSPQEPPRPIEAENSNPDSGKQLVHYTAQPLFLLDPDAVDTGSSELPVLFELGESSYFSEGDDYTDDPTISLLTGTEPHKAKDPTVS

[4] = target: T2, Sphingosine 1-phosphate receptor 4 (Homo sapiens, UniProt O95977); experiment: Late stage fluorescence dose response cell-based screening assay for antagonists of the Sphingosine 1-Phosphate Receptor 4 (S1P4). [Related pubchem assays: 1524 (Confirmation screen (S1P4 antagonists).), 1510 (Primary screen (S1P4 antagonists).), 1853 (Summary AID (S1P4 antagonists).), 1692 (Dose response screen (S1P4 antagonists).)]; type: functional
T2 sequence (O95977 whole entry): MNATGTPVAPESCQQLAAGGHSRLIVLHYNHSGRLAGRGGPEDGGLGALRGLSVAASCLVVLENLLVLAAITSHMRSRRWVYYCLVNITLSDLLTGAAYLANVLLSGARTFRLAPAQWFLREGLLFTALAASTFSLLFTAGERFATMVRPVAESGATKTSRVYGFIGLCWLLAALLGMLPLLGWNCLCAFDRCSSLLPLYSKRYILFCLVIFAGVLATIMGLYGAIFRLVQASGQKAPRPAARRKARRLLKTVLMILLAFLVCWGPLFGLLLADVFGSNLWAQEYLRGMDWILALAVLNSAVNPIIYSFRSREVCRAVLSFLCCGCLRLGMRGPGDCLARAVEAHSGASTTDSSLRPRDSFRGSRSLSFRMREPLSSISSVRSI

[5] = growth suppression of beta-catenin-knockout colon cells, dose response, cell-based, HCT116, human colon tumor (AID 1045); type: functional;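 further: HCT116 colon tumor cells with beta catenin knocked out; cells exposed to compound for 60 hours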
[6] = C. albicans growth with fluconazole, confirmation, fluorescence, retest (AID 2467); type: functional, cell-based
[7] = target: T2, Sphingosine 1-phosphate receptor 4; experiment: Fluorescence dose response cell-based high throughput screening assay for antagonists of the Sphingosine 1-Phosphate Receptor 4 (S1P4). [Related pubchem assays: 1524 (Confirmation in triplicates.), 1510 (Primary screen.)]; type: functional
[8] = growth suppression of PTEN-null colon cells, dose response, cell-based, HCT116 PTEN knockout (AID 1047); type: functional;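 further: HCT116 colon tumor cells with PTEN knocked out; cells exposed to compound for 60 hours before readout; potency for loss of cell viability measured by luminescence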
Protein RecA = target: T3, Protein RecA (Mycobacterium tuberculosis, UniProt P9WHJ3); experiment: Fluorescence Cell-Free Homogeneous Dose Retest to Identify Inhibitors of RecA-Intein Splicing Activity. [Related pubchem assays (depositor defined):AID2097, AID2223, AID489010, AID492950]; type: functional
T3 sequence (P9WHJ3 whole entry): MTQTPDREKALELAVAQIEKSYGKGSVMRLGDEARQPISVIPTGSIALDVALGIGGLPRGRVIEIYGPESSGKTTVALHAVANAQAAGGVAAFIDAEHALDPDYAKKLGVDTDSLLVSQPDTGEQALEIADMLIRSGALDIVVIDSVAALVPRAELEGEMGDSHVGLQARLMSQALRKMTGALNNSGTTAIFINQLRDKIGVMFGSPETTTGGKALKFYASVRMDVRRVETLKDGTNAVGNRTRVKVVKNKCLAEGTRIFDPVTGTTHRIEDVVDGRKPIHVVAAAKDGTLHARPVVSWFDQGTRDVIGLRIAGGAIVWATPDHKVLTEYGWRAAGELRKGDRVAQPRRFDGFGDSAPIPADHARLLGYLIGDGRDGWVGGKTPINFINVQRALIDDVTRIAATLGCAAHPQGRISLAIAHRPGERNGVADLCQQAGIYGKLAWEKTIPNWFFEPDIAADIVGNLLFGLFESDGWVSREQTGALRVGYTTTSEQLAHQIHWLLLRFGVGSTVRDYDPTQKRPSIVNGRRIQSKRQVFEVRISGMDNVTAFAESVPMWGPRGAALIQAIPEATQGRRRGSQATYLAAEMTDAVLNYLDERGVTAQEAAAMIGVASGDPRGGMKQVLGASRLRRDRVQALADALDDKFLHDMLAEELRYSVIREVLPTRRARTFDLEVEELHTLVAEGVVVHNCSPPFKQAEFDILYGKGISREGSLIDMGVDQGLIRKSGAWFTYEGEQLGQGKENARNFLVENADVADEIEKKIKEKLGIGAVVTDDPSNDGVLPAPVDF

[9] = target: T4, Replicative DNA helicase DnaB (Mycobacterium tuberculosis, UniProt P9WMR3); experiment: DnaB intein splicing inhibitors, dose response, biochemical, cell-free fluorescence (AID 449749); type: functional
T4 sequence (P9WMR3 whole entry): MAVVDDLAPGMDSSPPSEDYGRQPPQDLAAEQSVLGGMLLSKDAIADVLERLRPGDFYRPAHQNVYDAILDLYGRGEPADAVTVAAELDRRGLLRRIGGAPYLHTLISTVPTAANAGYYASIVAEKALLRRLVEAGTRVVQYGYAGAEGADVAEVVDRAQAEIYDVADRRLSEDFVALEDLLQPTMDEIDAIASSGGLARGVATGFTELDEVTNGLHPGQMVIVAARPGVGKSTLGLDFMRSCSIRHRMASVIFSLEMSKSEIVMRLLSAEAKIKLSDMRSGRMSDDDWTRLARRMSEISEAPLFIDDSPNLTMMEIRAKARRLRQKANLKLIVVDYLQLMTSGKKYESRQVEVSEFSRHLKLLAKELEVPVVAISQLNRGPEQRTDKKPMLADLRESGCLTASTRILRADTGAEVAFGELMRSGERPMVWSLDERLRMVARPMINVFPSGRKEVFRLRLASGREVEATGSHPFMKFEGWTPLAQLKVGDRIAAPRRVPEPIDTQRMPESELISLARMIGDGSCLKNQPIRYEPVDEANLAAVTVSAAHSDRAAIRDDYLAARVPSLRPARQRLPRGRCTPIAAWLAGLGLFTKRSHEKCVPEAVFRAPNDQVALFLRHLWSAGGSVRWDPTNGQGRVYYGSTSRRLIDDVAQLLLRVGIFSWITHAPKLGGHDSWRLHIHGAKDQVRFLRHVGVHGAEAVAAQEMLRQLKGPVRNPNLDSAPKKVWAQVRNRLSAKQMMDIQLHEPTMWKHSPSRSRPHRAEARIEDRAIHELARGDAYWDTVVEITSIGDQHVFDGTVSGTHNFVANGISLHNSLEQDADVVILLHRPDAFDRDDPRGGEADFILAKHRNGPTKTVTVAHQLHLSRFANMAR

Cytochrome P450 2C19, sequence (P33261 whole entry): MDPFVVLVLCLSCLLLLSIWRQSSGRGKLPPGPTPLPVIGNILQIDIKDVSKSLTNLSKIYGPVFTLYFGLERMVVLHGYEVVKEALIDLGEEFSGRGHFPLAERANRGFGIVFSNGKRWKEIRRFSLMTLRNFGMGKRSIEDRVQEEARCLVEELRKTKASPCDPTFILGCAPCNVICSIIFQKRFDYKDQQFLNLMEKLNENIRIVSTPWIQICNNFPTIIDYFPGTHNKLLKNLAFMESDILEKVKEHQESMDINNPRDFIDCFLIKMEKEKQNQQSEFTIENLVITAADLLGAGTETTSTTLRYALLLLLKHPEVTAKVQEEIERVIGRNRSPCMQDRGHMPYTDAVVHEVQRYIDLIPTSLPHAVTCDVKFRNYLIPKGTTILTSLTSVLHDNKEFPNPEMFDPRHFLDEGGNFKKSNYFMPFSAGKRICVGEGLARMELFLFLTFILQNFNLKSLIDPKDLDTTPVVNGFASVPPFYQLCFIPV

Compound: COC(=O)NC(/C(C(=O)OC)=C(\C)NCc1ccccc1)c1cccc(C)c1 (stereo not drawn)
- AC50 (Cytochrome P450 2C19): 6.31 µM (inconclusive)
- AC50 (Cytochrome P450 2D6): 7.94 µM (inconclusive)

Compound: CCN1c2ccccc2S(=O)(=O)c2ccccc21
- IC50 (NADPH oxidase 1): > 50 µM (not active)

Compound: O=S(=O)(c1ccc(Cl)c(Cl)c1)c1snnc1-c1ccccc1
- IC50 [1]: 4.29 µM (active)
- EC50 [2]: 18.3 µM (active)
- EC50 [3]: 9.7 µM (active)
- IC50 [4]: 10.8 µM (not active)
- EC50 [5]: 0.083 µM (active)
- EC50 [6]: > 38 µM (not active)
- IC50 [7]: 0.524 µM (active)
- EC50 [8]: 0.117 µM (active)
- EC50 (Protein RecA): 0.504 µM (active)
- AC50 [9]: 2.89 µM (active)
